Calls of active or inactive are those of the source. The calls are words filed in the database; no cut-off is given here.

In ChEMBL document CHEMBL1800008, “Design, synthesis and reactivity of C2-symmetric azobenzene-based amino acid-bis(propargyl sulfones)” (Bioorg Med Chem Lett, 2010) one finds K and Activity data, which are given here for three molecules.

Holding throughout (assay type): nucleic-acid assay
The test system of test [1] is Nucleic Acid. The experiment in a line: Binding affinity to calf thymus DNA by absorption titration analysis. Particulars: Bos taurus.
The subject of test [2] is Nucleic Acid. Put plainly: Induction of Escherichia coli supercoiled pBR322 DNA cleavage at 0.02 mM after 48 hrs by densitometric analysis.
In test [3] the test system is Nucleic Acid. Put plainly: Induction of Escherichia coli supercoiled pBR322 DNA cleavage at 0.02 mM after 48 hrs by gel electrophoresis analysis.

Turning to `CC(C)[C@H](NC(=O)COc1ccccc1/N=N/c1ccccc1OCC(=O)N[C@H](C(=O)OCC#CCS(=O)(=O)c1ccccc1)C(C)C)C(=O)OCC#CCS(=O)(=O)c1ccccc1`, in the test with Nucleic Acid [1], the K is 11 ×10⁴ /M. Also, in the test on Nucleic Acid [2], the outcome was Active. This molecule also came in with an Activity in the test on Nucleic Acid [3] of 20%.

With `O=S(=O)(CC#CCOc1ccccc1/N=N/c1ccccc1OCC#CCS(=O)(=O)c1ccccc1)c1ccccc1`, the Activity with Nucleic Acid [3] was determined as 25%.

Consider `O=C(COc1ccccc1/N=N/c1ccccc1OCC(=O)N[C@@H](Cc1ccccc1)C(=O)OCC#CCS(=O)(=O)c1ccccc1)N[C@@H](Cc1ccccc1)C(=O)OCC#CCS(=O)(=O)c1ccccc1`, for which the K with Nucleic Acid [1] worked out at 9 ×10⁴ /M. The outcome with Nucleic Acid [2] was Active. The same molecule came in with an Activity with Nucleic Acid [3] of 10%.
